Experimental data as given in patent publication US7795315B2, “N-(2-amino-phenyl)-amide derivatives” (Hoffman-La Roche Inc., priority 2008, dated 2010).

Key:
Assay type in all cases: cell-based
[1] = system: klf2 promoter-luciferase construct in A204 cells; test: klf2 reporter gene induction (p21 versus klf2 selectivity); conditions: SNDX-275 p21/klf2 ratio defined as 1.0; for p21/klf2 (RP3): relative selectivity compared with SNDX-275: 3 micromolar; for p21/klf2 (RP10): relative selectivity compared with SNDX-275: 10 micromolar
Experimental: (§1) The novel compounds of the present invention were tested for their ability to induce p21 gene expression using a reporter gene assay involving HeLa cells transfected with a p21 promoter-luciferase construct. The p21 promoter contained the Sp1/Sp3 binding site for HDAC but not the upstream p53 binding site. Briefly, the day before transfection, HeLa cells were seeded at 11,000 cells/well in a 96-well culture plate and incubated at 37 degrees Celsius in 5% CO2 overnight. For transfection, the medium was removed and replaced with 100 microliters/well transfection media previously prepared as follows: 5 microliters serum-free DMEM, 0.15 microliters Fugene 6 reagent, 40 ng p21-luc, 10 ng GFP were mixed gently and incubated at room temperature for 30 minutes; then 98 microliters DMEM (with 10% FBS, 1% penicillin and streptomycin) was added to the DNA:Fugene 6 reagent complex and mixed gently. After incubating the cells for 24 hours at 37 degrees Celsius in 5% CO2, fresh media and test compounds were added to the wells and the cells further incubated for 15 hours at 37 degrees Celsius in 5% CO2. Cells were lysed by adding 80 microliters/well of a cell culture lysis reagent (Promega). 50 microliters of each lysate was taken for GFP detection using an excitation wavelength of 486 nm and detection at 527 nm. 100 microliters Luciferase assay reagent (Promega) was then added to every 20 microliters cell lysate for luminometer detection. […] Induction activity for specific representative compounds can be found in Table 4.
The novel compounds of the present invention were tested for their ability to induce klf2 gene expression using a reporter gene assay involving A204 cells transfected with a klf2 promoter-luciferase construct. The klf2 promoter contained the MEF2 binding site for HDAC3/class IIa HDAC complex. Briefly, the day before transfection, A204 cells were seeded at 11,000 cells/well in a 96-well culture plate and incubated at 37 degrees Celsius in 5% CO2 overnight. For transfection, the medium was removed and replaced with 100 microliters/well transfection media previously prepared as follows: 5 microliters serum-free DMEM, 0.15 microliters Fugene 6 reagent, 40 ng klf2-luc, 10 ng GFP were mixed gently and incubated at room temperature for 30 minutes; then 98 microliters DMEM (with 10% FBS, 1% penicillin and streptomycin) was added to the DNA:Fugene 6 reagent complex and mixed gently. After incubating the cells for 24 hours at 37 degrees Celsius in 5% CO2, fresh media and test compounds were added to the wells and the cells further incubated for 15 hours at 37 degrees Celsius in 5% CO2. Finally, 10 ng/ml TNF-α was added and the cells further incubated for 4 hours. Cells were lysed by adding 80 microliters/well of a cell culture lysis reagent (Promega). 50 microliters of each lysate was taken for GFP detection using an excitation wavelength of 486 nm and detection at 527 nm. 100 microliters Luciferase assay reagent (Promega) was then added to every 20 microliters cell lysate for luminometer detection.

[2] = system: p21 promoter-luciferase construct in HeLa cells; test: p21 reporter gene induction; conditions: 3 micromolar, 15 hours, relative to SNDX-275
Experimental: as §1

[3] = system: HCT-116 colon cancer cells; test: Antiproliferative activity, growth inhibition (MTS/WST assay); conditions: Homo sapiens, 72 hour growth inhibition, read-out: GI50 HCT116
Experimental: The novel compounds of the present invention were tested for their ability to inhibit growth of various cancer cell lines (HeLa, MCF7, U2OS, HepG2, HL60, HCT-116) using in vitro growth inhibition assays described below.
Cells were seeded in 96-well culture plates (200 microliters/well at different seeding concentrations depending on cell type) and incubated overnight at 37 degrees Celsius in 5% CO2. After adding compound dilutions to the cells (DMSO concentration kept below 0.5%), the cells were incubated at 37 degrees Celsius in 5% CO2 for 72 hours. The effects on proliferation were determined by addition of MTS reagent (Promega) according to the manufacturer's instruction, followed by incubation for 2 hours at 37 degrees Celsius in 5% CO2, and finally recording the absorbance at 490 nm using an ELISA plate reader.
Similar to MTS assay except that the developer is the CCK-8 reagent (Dojindo) and the plate reader is set to 450 nm absorbance.
GI50 values against HCT-116 colon cancer cells for specific representative compounds can be found in Table 4.

SMILES: CN(C)CCNC(C(=O)Nc1ccc(C(F)(F)F)c(F)c1)c1ccc(/C=C/C(=O)Nc2ccccc2N)cc1 (stereo not drawn) [Example 4-49, (E)-N-(2-Amino-phenyl)-3-{4-[(2-dimethylamino-ethylamino)-(3-fluoro-4-trifluoromethyl-phenylcarbamoyl)-methyl]-phenyl}-acrylamide]
- p21/klf2 (RP3): relative selectivity compared with SNDX-275 [1]: 1.5
- p21/klf2 (RP10): relative selectivity compared with SNDX-275 [1]: 1.5
- p21 (RP3): relative induction potency compared with SNDX-275 [2]: 128%
- GI50 [3]: 1400 nM

SMILES: Nc1ccccc1NC(=O)/C=C/c1ccc(C(NCCN2CCCCC2)C(=O)Nc2ccc(Br)cc2)cc1 (stereo not drawn) [Example 4-31, (E)-N-(2-Amino-phenyl)-3-{4-[(4-bromo-phenylcarbamoyl)-(2-piperidin-1-yl-ethylamino)-methyl]-phenyl}-acrylamide]
- p21/klf2 (RP3): relative selectivity compared with SNDX-275 [1]: 1.2
- p21/klf2 (RP10): relative selectivity compared with SNDX-275 [1]: 1.2
- p21 (RP3): relative induction potency compared with SNDX-275 [2]: 178%
- GI50 [3]: 200 nM

SMILES: Cc1ccc(NC(=O)C(NCCN2CCOCC2)c2ccc(/C=C/C(=O)Nc3ccccc3N)cc2)cc1 (stereo not drawn) [Example 30-54, (E)-N-(2-Amino-phenyl)-3-{4-[(2-morpholin-4-yl-ethylamino)-p-tolylcarbamoyl-methyl]-phenyl}-acrylamide]
- p21/klf2 (RP3): relative selectivity compared with SNDX-275 [1]: 2.0
- p21/klf2 (RP10): relative selectivity compared with SNDX-275 [1]: 1.3
- p21 (RP3): relative induction potency compared with SNDX-275 [2]: 183%
- GI50 [3]: 1000 nM

SMILES: Nc1ccccc1NC(=O)/C=C/c1ccc(C(NCCN2CCCCC2)C(=O)Nc2ccc(C(F)(F)F)cc2)cc1 (stereo not drawn) [Example 4-2, (E)-N-(2-Amino-phenyl)-3-{4-[(2-piperidin-1-yl-ethylamino)-(4-trifluoromethyl-phenylcarbamoyl)-methyl]-phenyl}-acrylamide]
- p21/klf2 (RP3): relative selectivity compared with SNDX-275 [1]: 2.2
- p21/klf2 (RP10): relative selectivity compared with SNDX-275 [1]: 3.6
- p21 (RP3): relative induction potency compared with SNDX-275 [2]: 324%
- GI50 [3]: 700 nM

SMILES: N#Cc1ccc(NC(=O)C(NCCN2CCOCC2)c2ccc(/C=C/C(=O)Nc3ccccc3N)cc2)cc1 (stereo not drawn) [Example 4-3, (E)-N-(2-Amino-phenyl)-3-{4-[(4-cyano-phenylcarbamoyl)-(2-morpholin-4-yl-ethylamino)-methyl]-phenyl}-acrylamide]
- p21/klf2 (RP3): relative selectivity compared with SNDX-275 [1]: 0.8
- p21/klf2 (RP10): relative selectivity compared with SNDX-275 [1]: 1.2
- p21 (RP3): relative induction potency compared with SNDX-275 [2]: 99%
- GI50 [3]: 1000 nM

SMILES: CN(C)C(C(=O)Nc1ccc(C(F)(F)F)cc1)c1ccc(/C=C/C(=O)Nc2ccccc2N)cc1 (stereo not drawn) [Example 9-6, (E)-N-(2-Amino-phenyl)-3-{4-[dimethylamino-(4-trifluoromethyl-phenylcarbamoyl)-methyl]-phenyl}-acrylamide]
- p21/klf2 (RP3): relative selectivity compared with SNDX-275 [1]: 0.9
- p21/klf2 (RP10): relative selectivity compared with SNDX-275 [1]: 1.7
- p21 (RP3): relative induction potency compared with SNDX-275 [2]: 47%
- GI50 [3]: 2700 nM

SMILES: Nc1ccccc1NC(=O)/C=C/c1ccc(C(C(=O)Nc2ccc(C(F)(F)F)cc2)N2CCCC2)cc1 (stereo not drawn) [Example 9-11, (E)-N-(2-Amino-phenyl)-3-{4-[pyrrolidin-1-yl-(4-trifluoromethyl-phenylcarbamoyl)-methyl]-phenyl}-acrylamide]
- p21/klf2 (RP3): relative selectivity compared with SNDX-275 [1]: 1.1
- p21/klf2 (RP10): relative selectivity compared with SNDX-275 [1]: 2.7
- p21 (RP3): relative induction potency compared with SNDX-275 [2]: 97%
- GI50 [3]: 900 nM

SMILES: CN(C)CCNC(C(=O)Nc1ccc(Br)cc1)c1ccc(/C=C/C(=O)Nc2ccccc2N)cc1 (stereo not drawn) [Example 9-3, (E)-N-(2-Amino-phenyl)-3-{4-[(4-bromo-phenylcarbamoyl)-(2-dimethylamino-ethylamino)-methyl]-phenyl}-acrylamide]
- p21/klf2 (RP3): relative selectivity compared with SNDX-275 [1]: 1.6
- p21/klf2 (RP10): relative selectivity compared with SNDX-275 [1]: 1.7
- p21 (RP3): relative induction potency compared with SNDX-275 [2]: 152%
- GI50 [3]: 300 nM

SMILES: Nc1ccccc1NC(=O)/C=C/c1ccc(C(NCCN2CCOCC2)C(=O)Nc2ccc(C(F)(F)F)cc2)cc1 (stereo not drawn) [Example 30, (E)-N-(2-Amino-phenyl)-3-{4-[(2-morpholin-4-yl-ethylamino)-(4-trifluoromethyl-phenylcarbamoyl)-methyl]-phenyl}-acrylamide]
- p21/klf2 (RP3): relative selectivity compared with SNDX-275 [1]: 1.3
- p21/klf2 (RP10): relative selectivity compared with SNDX-275 [1]: 3.9
- p21 (RP3): relative induction potency compared with SNDX-275 [2]: 100%
- GI50 [3]: 800 nM

SMILES: Nc1ccccc1NC(=O)/C=C/c1ccc(C(NCCCN2CCOCC2)C(=O)Nc2ccc(C3CC3)cc2)cc1 (stereo not drawn) [Example 4-41, (E)-N-(2-Amino-phenyl)-3-{4-[(4-cyclopropyl-phenylcarbamoyl)-(3-morpholin-4-yl-propylamino)-methyl]-phenyl}-acrylamide]
- p21/klf2 (RP3): relative selectivity compared with SNDX-275 [1]: 3.5
- p21/klf2 (RP10): relative selectivity compared with SNDX-275 [1]: 2.1
- p21 (RP3): relative induction potency compared with SNDX-275 [2]: 156%
- GI50 [3]: 1400 nM

SMILES: Nc1ccccc1NC(=O)/C=C/c1ccc(C(NCCC2CCOCC2)C(=O)Nc2ccc(C(F)(F)F)cc2)cc1 (stereo not drawn) [Example 9-18, (E)-N-(2-Amino-phenyl)-3-{4-[[2-(tetrahydro-pyran-4-yl)-ethylamino]-(4-trifluoromethyl-phenylcarbamoyl)-methyl]-phenyl}-acrylamide]
- p21/klf2 (RP3): relative selectivity compared with SNDX-275 [1]: 1.0
- p21/klf2 (RP10): relative selectivity compared with SNDX-275 [1]: 1.7
- p21 (RP3): relative induction potency compared with SNDX-275 [2]: 70%
- GI50 [3]: 1000 nM

SMILES: CC(C)c1ccc(NC(=O)C(NCCN2CCOCC2)c2ccc(/C=C/C(=O)Nc3ccccc3N)cc2)cc1 (stereo not drawn) [Example 4-37, (E)-N-(2-Amino-phenyl)-3-{4-[(4-isopropyl-phenylcarbamoyl)-(2-morpholin-4-yl-ethylamino)-methyl]-phenyl}-acrylamide]
- p21/klf2 (RP3): relative selectivity compared with SNDX-275 [1]: 1.1
- p21/klf2 (RP10): relative selectivity compared with SNDX-275 [1]: 1.7
- p21 (RP3): relative induction potency compared with SNDX-275 [2]: 60%
- GI50 [3]: 1000 nM

SMILES: Nc1ccccc1NC(=O)/C=C/c1ccc(C(NCCN2CCCCC2)C(=O)Nc2ccc(OC(F)(F)F)cc2)cc1 (stereo not drawn) [Example 4-48, (E)-N-(2-Amino-phenyl)-3-{4-[(2-piperidin-1-yl-ethylamino)-(4-trifluoromethoxy-phenylcarbamoyl)-methyl]-phenyl}-acrylamide]
- p21/klf2 (RP3): relative selectivity compared with SNDX-275 [1]: 1.9
- p21/klf2 (RP10): relative selectivity compared with SNDX-275 [1]: 1.9
- p21 (RP3): relative induction potency compared with SNDX-275 [2]: 130%
- GI50 [3]: 1400 nM

SMILES: Nc1ccccc1NC(=O)/C=C/c1ccc(C(NCCCN2CCOCC2)C(=O)Nc2ccc(C(F)(F)F)cc2)cc1 (stereo not drawn) [Example 4-5, (E)-N-(2-Amino-phenyl)-3-{4-[(3-morpholin-4-yl-propylamino)-(4-trifluoromethyl-phenylcarbamoyl)-methyl]-phenyl}-acrylamide]
- p21/klf2 (RP3): relative selectivity compared with SNDX-275 [1]: 1.2
- p21/klf2 (RP10): relative selectivity compared with SNDX-275 [1]: 4.5
- p21 (RP3): relative induction potency compared with SNDX-275 [2]: 241%
- GI50 [3]: 800 nM

SMILES: Nc1ccccc1NC(=O)/C=C/c1ccc(C(NCCN2CCOCC2)C(=O)Nc2ccc(C3CC3)cc2)cc1 (stereo not drawn) [Example 4-47, (E)-N-(2-Amino-phenyl)-3-{4-[(4-cyclopropyl-phenylcarbamoyl)-(2-morpholin-4-yl-ethylamino)-methyl]-phenyl}-acrylamide]
- p21/klf2 (RP3): relative selectivity compared with SNDX-275 [1]: 1.0
- p21/klf2 (RP10): relative selectivity compared with SNDX-275 [1]: 1.8
- p21 (RP3): relative induction potency compared with SNDX-275 [2]: 79%
- GI50 [3]: 900 nM
